Data set [1] can be described thus: Cmax in nude mouse at 30 mg/kg, ip administered as single dose. The settings on record: in vivo. Further details: dose 30 mg/kg, route intraperitoneal. The class given is ADME, organism-based.
A short description of data set [2]: Tmax in nude mouse at 30 mg/kg, ip administered as single dose. In kind it is ADME, organism-based. The settings on record: in vivo.
Data set [3] in a line: AUC (0 to t) in nude mouse at 30 mg/kg, ip administered as single dose. The following applies: in vivo. In kind it is ADME, organism-based.
The nature of data set [4]: Half life in nude mouse at 30 mg/kg, ip administered as single dose. The settings on record: in vivo. The class given is ADME, organism-based.
A short description of data set [5]: Passive permeability of the compound by PAMPA method. The class given is physicochemical. The following applies: read-out: permeability.

In data set [1], `Cl.NC1CCc2c(Br)ccc(-c3ccccc3)c2CC1=O` (stereo not given) showed a Cmax of 115 ng/mL. Also, the Tmax in data set [2] was 30 min. In data set [3], this compound had an AUC(0-t) of 190 ng·h/mL. The half-life in data set [4] stood at 35 min. Also, the Papp in data set [5] was found to be 3.03 ×10⁻⁶ cm/s.

These data come from ChEMBL document CHEMBL3596108 (Bioorg Med Chem, 2015).
